Common to all, as to type: cell-based
The target in one assay is T1, human TLR9 (Homo sapiens, UniProt Q9NR96).
T1 construct: host or cells: HEK-Blue cells
T1 sequence (Q9NR96 26-1032): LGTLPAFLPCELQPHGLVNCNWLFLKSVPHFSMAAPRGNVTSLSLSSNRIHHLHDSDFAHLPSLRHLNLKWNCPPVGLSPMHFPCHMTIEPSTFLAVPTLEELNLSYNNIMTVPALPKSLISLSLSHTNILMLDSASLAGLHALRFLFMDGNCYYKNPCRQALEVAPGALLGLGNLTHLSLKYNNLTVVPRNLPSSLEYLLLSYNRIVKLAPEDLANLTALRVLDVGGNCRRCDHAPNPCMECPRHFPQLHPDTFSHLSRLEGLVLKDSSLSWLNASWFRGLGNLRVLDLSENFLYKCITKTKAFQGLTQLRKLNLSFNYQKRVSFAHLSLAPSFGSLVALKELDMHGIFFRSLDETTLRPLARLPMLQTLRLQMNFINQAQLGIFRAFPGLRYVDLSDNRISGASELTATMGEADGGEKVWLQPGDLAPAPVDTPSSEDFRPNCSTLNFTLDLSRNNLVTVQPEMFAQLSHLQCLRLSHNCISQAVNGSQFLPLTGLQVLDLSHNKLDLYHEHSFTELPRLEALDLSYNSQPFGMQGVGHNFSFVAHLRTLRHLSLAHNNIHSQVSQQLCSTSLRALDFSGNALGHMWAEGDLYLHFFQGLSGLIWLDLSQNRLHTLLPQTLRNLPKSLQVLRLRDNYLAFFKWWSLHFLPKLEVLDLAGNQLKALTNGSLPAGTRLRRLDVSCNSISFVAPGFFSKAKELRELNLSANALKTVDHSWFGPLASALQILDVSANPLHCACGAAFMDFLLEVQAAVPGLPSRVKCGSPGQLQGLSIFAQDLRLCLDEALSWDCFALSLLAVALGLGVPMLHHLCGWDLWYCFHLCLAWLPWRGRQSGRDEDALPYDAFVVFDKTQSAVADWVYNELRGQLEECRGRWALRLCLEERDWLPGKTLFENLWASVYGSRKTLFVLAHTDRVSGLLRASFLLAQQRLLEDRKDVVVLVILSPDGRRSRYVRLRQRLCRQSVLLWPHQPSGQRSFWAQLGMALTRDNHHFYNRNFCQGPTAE
The assay is described as follows: TLR9 inhibition reporter assay (HEK-Blue SEAP). To be noted: HEK-Blue cells overexpressing human TLR9, stimulated with ODN2006 5 nM, 22 hour incubation. On the procedure:
(§1) TLR7/8/9 Inhibition Reporter Assays
(§2) HEK-Blue™-cells (Invivogen) overexpressing human TLR7, TLR8 or TLR9 receptors were used for screening inhibitors of these receptors using an inducible SEAP (secreted embryonic alkaline phosphatase) reporter gene under the control of the IFN-β minimal promoter fused to five NF-κB and AP-1-binding sites. Briefly, cells are seeded into Greiner 384 well plates (15000 cells per well for TLR7, 20,000 for TLR8 and 25,000 for TLR9) and then treated with test compounds in DMSO to yield a final dose response concentration range of 0.05 nM to 50 μM. After a 30 minute compound pre-treatment at room temperature, the cells are then stimulated with a TLR7 ligand (gardiquimod at a final concentration of 7.5 μM), TLR8 ligand (R848 at a final concentration of 15.9 μM) or TLR9 ligand (ODN2006 at a final concentration of 5 nM) to activate NF-κB and AP-1 which induce the production of SEAP. After a 22 hour incubation at 37° C., 5% CO2, SEAP levels are determined with the addition of HEK-Blue™ Detection reagent (Invivogen), a cell culture medium that allows for detection of SEAP, according to manufacturer's specifications. The percent inhibition is determined as the % reduction in the HEK-Blue signal present in wells treated with agonist plus DMSO alone compared to wells treated with a known inhibitor.
Background: A reporter such as luciferase makes a cellular process visible.

The target of another assay is T2, human TLR7 (Homo sapiens, UniProt Q9NYK1).
T2 construct: host or cells: HEK-Blue cells
T2 sequence (Q9NYK1 27-1049): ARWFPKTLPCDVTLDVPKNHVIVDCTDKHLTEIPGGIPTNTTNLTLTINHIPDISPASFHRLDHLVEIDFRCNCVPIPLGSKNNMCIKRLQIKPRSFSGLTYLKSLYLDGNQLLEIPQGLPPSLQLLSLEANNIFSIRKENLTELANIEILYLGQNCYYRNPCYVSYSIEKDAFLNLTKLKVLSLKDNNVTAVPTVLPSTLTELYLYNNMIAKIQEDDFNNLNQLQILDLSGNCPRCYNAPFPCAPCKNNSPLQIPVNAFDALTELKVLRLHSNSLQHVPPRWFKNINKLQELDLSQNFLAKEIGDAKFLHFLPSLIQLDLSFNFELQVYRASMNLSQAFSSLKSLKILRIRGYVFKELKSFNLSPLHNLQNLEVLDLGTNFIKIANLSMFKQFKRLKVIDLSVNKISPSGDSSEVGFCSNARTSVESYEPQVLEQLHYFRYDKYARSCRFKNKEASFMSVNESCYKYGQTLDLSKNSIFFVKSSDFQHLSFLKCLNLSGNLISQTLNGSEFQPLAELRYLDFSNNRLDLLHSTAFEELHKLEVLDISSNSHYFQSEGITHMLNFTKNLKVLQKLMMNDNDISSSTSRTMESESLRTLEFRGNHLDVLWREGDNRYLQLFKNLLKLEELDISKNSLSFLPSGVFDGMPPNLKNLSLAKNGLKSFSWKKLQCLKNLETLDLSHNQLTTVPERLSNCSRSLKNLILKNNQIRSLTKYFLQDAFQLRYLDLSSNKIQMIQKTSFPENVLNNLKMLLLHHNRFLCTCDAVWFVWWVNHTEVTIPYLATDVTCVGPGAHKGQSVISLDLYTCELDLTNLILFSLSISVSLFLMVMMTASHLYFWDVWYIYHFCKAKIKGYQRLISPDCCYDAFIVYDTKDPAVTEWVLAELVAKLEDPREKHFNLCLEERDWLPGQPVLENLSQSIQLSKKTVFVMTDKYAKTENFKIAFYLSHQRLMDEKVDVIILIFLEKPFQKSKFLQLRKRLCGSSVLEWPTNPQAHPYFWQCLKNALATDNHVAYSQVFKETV
Briefly: TLR7 inhibition reporter assay (HEK-Blue SEAP). To be noted: HEK-Blue cells overexpressing human TLR7, stimulated with gardiquimod 7.5 μM, 22 hour incubation. On the procedure: as §1, §2

The next assay addresses T3, human TLR8 (Homo sapiens, UniProt Q9NR97).
T3 construct: host or cells: HEK-Blue cells
T3 sequence (Q9NR97 27-1041): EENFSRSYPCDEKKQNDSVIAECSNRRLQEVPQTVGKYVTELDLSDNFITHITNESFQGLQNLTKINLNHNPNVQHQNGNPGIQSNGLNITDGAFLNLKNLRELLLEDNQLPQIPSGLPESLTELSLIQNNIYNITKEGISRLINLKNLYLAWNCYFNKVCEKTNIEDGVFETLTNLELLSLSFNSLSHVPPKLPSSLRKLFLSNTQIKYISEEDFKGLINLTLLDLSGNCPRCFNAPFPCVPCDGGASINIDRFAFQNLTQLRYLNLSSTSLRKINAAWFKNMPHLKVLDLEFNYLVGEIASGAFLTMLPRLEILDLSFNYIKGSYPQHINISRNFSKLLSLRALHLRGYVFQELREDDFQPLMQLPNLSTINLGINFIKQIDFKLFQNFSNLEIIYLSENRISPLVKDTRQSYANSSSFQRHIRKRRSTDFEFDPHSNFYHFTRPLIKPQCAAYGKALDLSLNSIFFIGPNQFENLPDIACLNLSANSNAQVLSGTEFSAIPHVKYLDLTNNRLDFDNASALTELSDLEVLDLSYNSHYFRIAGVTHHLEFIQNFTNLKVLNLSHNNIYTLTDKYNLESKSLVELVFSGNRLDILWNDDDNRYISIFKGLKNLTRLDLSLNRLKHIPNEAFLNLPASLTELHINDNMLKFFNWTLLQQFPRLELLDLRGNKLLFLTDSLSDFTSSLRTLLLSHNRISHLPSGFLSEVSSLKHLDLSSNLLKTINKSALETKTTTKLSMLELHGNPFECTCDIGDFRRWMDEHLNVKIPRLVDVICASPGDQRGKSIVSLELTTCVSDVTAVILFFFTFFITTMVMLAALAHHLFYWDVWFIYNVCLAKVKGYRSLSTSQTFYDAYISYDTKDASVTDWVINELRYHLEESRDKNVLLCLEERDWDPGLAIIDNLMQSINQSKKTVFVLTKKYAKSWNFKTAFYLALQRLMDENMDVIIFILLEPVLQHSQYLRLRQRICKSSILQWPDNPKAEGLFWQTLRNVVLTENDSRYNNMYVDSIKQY
The assay is described as follows: TLR8 inhibition reporter assay (HEK-Blue SEAP). To be noted: HEK-Blue cells overexpressing human TLR8, stimulated with R848 15.9 μM, 22 hour incubation. The procedure:
as §1, §2

What is called IC50 is the concentration that gives 50% inhibition. A higher IC50 goes with weaker potency.

Turning to “5-methyl-6-(8-methyl-[1,2,4]triazolo[1,5-a]pyridin-6-yl)-N-(piperidin-4-yl)-1H-indazol-3-amine [Example 203]”, the IC50 on human TLR9 came out at 1420 nM; against human TLR7, 51.7 nM; against human TLR8, 2.1 nM.
The like results for `Cc1cc2c(C3CCC(N(C)C)CC3)n[nH]c2cc1-c1cc(C)c2ncnn2c1` (single isomer, unassigned) [Example 3, N,N-dimethyl-4-(5-methyl-6-(8-methyl-[1,2,4]triazolo[1,5-a]pyridin-6-yl)-1H-indazol-3-yl)cyclohexan-1-amine] were, in that order, 1120 nM, 10.2 nM and 0.4 nM.
Take `Cc1cc2c(C3CCC(N(C)C)CC3)n[nH]c2cc1-c1cc(C)c2ncnn2c1` (single isomer, unassigned) [Example 4, N,N-dimethyl-4-(5-methyl-6-(8-methyl-[1,2,4]triazolo[1,5-a]pyridin-6-yl)-1H-indazol-3-yl)cyclohexan-1-amine]: the half-inhibitory concentration (IC50) against human TLR9 is 2820 nM; against human TLR7, 19.9 nM; against human TLR8 it was 0.7 nM.
`Cc1cc(-c2cc3[nH]nc(C4CCC(NCC(=O)N(C)C)CC4)c3cc2C(C)C)cn2ncnc12` (single isomer, unassigned) [Example 124, 2-((4-(5-isopropyl-6-(8-methyl-[1,2,4]triazolo[1,5-a]pyridin-6-yl)-1H-indazol-3-yl)cyclohexyl)amino)-N,N-dimethylacetamide]: the values for the IC50 against human TLR9 and against human TLR7 were 11000 nM and 0.3 nM, respectively.
On to `Cc1cc(-c2cc3[nH]nc(C4CCC(N5CCC6(COC6)C5)CC4)c3cc2C(C)C)cn2ncnc12` (single isomer, unassigned) [Example 159, 6-(4-(5-isopropyl-6-(8-methyl-[1,2,4]triazolo[1,5-a]pyridin-6-yl)-1H-indazol-3-yl)cyclohexyl)-2-oxa-6-azaspiro[3.4]octane], for which the IC50 at human TLR9 was 7430 nM; against human TLR8, 0.1 nM.
On to `Cc1cc(-c2cc3[nH]nc(C4CCC(N5CCC6(COC6)C5)CC4)c3cc2C(C)C)cn2ncnc12` (single isomer, unassigned) [Example 160, 6-(4-(5-isopropyl-6-(8-methyl-[1,2,4]triazolo[1,5-a]pyridin-6-yl)-1H-indazol-3-yl)cyclohexyl)-2-oxa-6-azaspiro[3.4]octane], for which the figures for the IC50 against human TLR9 and at human TLR8 were 7300 nM and 0.4 nM, respectively.
Turning to `Cc1cc(-c2cc3[nH]nc(C4CCC(N5CCC(C)(O)C5)CC4)c3cc2C(C)C)cn2ncnc12` (single isomer, unassigned) [Example 165, 1-(4-(5-isopropyl-6-(8-methyl-[1,2,4]triazolo[1,5-a]pyridin-6-yl)-1H-indazol-3-yl)cyclohexyl)-3-methylpyrrolidin-3-ol], the IC50 stood at 13300 nM against human TLR9 and 0.5 nM against human TLR7.
For `Cc1cc2cn[nH]c2cc1-c1cc(C)c2ncnn2c1` [Example 63, 8-methyl-6-(5-methyl-1H-indazol-6-yl)-[1,2,4]triazolo[1,5-a]pyridine], the IC50 worked out at 562 nM against human TLR7 and 32.4 nM against human TLR8.
As for `CCc1cc2c(C3CCN(C4COC4)CC3)n[nH]c2cc1-c1cc(C)c2ncnn2c1` [Example 89, 6-(5-ethyl-3-(1-(oxetan-3-yl)piperidin-4-yl)-1H-indazol-6-yl)-8-methyl-[1,2,4]triazolo[1,5-a]pyridine], the IC50 at human TLR7 is 8.3 nM; against human TLR8 it was 0.7 nM.
As to `Cc1cc(-c2cc3[nH]nc(C4CCC(N(C)C)CC4)c3cc2C(C)C)cn2ncnc12` (stereo not shown) [Example 114, 4-(5-isopropyl-6-(8-methyl-[1,2,4]triazolo[1,5-a]pyridin-6-yl)-1H-indazol-3-yl)-N,N-dimethylcyclohexan-1-amine], the IC50 against human TLR9 was 6670 nM; at human TLR7, 0.2 nM.
Regarding `Cc1cc(-c2cc3[nH]nc(C4CCN(CCC#N)CC4)c3cc2C(C)C)cn2ncnc12` [Example 121, 3-(4-(5-isopropyl-6-(8-methyl-[1,2,4]triazolo[1,5-a]pyridin-6-yl)-1H-indazol-3-yl)piperidin-1-yl)propanenitrile], the IC50 on human TLR7 is 1.9 nM; on human TLR8, 0.1 nM.

For the origin of these results see patent publication US12172995B2, “Substituted indole and indazole compounds” (BRISTOL-MYERS SQUIBB COMPANY, priority 2018, dated 2024).
